Converted amounts (≈) assume the structure as drawn. “And” between values parts separate entries of the source, which are not always exact repeats. Identical values can stand only once.
Assays:
[1] = test system: ALPs; assay: In vitro ALP inhibition, larval homogenate; type: biochemical, Rhynchophorus ferrugineus; conditions: for IC50 ALPs in vitro: fourth-instar larvae preparation
Description: (§1) The R. ferrugineus were homogenized larvae in a buffer (sodium phosphate, 40 mM, and pH 7.4); then, sodium chloride (10 mM dissolved in 1% (w/v) triton X-100) was added. During centrifugation (Sigma 3–30 KS), the homogenate was chilled to 4 °C and spun at a speed of 5000 rpm (20 min). The supernatant was either immediately put into action for an enzymatic test or frozen and kept at […] for later use. Each test was repeated three times. The protein content was determined using the same protocol employed by Lowry with modification using protein extract (100 µL) combined with an alkaline copper solution and a Folin–Ciocalteu phenol reagent (2 mL and 200 µL, respectively). The intensity of the resulting blue hue was evaluated during 30 min of incubation at 25 °C. Using an ELISA plate reader and a BSA standard curve, we could calculate the protein concentration by analyzing the absorbance at 600 nm (Multiskan SkyHigh Microplate Spectrophotometer, Thermo Fisher Scientific, Waltham, MA, USA).
(§2) Activities of ACPs and ALPs were evaluated using a modified version of the Asakura technique. The ACP test required incubating 100 μL of crude enzyme in a buffer of 650 μL of sodium acetate (pH: 5.0; 50 mM with ACPs) or 250 μL of Tris–HCl (at 50 mM; pH: 8.0 with ALPs) and p-nitrophenyl phosphate (5.5 mM). For 30 min; the various mixes were kept at 37 °C for incubation. Thereafter, 500 μL of NaOH (0.5 N) stopped the reaction. Using an ELISA plate reader, we determined the mixture’s 415 nm absorbance value (Multiskan SkyHigh Microplate Spectrophotometer). The ACP- and ALP-specific activity was estimated as OD 415/mg protein·h.

[2] = test system: AChE; assay: In vivo AChE inhibition in treated fourth-instar larvae; parameters: species or system Rhynchophorus ferrugineus; conditions: fourth-instar larvae treated 24 h
Description: (§3) The enzyme AChE was assessed using a substrate of acetylthiocholine iodide and evaluated using 5,5′-dithiobis [2-nitrbenzoic acid] (DTNB), according to [94]. Each well contained a sodium phosphate buffer (140 µL) (pH: 8.0; 100 mM), DTNB (10 µL), extract (20 µL)/components at 1, 10, 50, 100, and 1000 µg/mL in DMSO and underwent 15 min of incubation at 25 °C. Acetylthiocholine (ATCh) was added to start the reaction (10 µL). The ATCh enzymatic hydrolysis produced a 5-thio-2-nitrobenzoate anion as a color (yellow) that was detected by measuring its wavelength, i.e., 412 nm, thereby allowing the researchers to track the rate of ATCh hydrolysis (15 min). Each response was performed three times on a microplate and examined using an ELISA plate reader to determine the 412 nm absorbance of the combination (Multiskan SkyHigh Microplate Spectrophotometer). The AChE-specific activity was measured as OD412/mg protein.h. based on observing the effect of raising the quantities of all of these compounds during the tests on the inhibition results, and the inhibitory concentration (IC50) was calculated. Then, a computer algorithm was used to determine the IC50 values (Version 9.01 of GraphPad Prism by Inc., 2020, San Diego, CA, USA).
(§4) Each enzyme’s in vivo impact was measured after treating larvae with an extract or pure chemicals. An inhibitor-free test combination served as a negative control. We determined the absorbance of the enzymes throughout a spectrum of wavelengths using a rapid reader for ELISA plates (Multiskan SkyHigh Microplate Spectrophotometer). Extracts and pure chemicals were used to treat R. ferrugineus larvae at previous serial concentrations, and their AChE, ACP, ALP, and GABA-T activity was tested in vivo using the methods outlined above. Larvae spent a day on leaf disks treated with chemicals or extract.

[3] = test system: fourth-instar larvae of R. ferrugineus; assay: Topical application (contact) to fourth-instar larvae (probit LD50); type: in vivo, Rhynchophorus ferrugineus; conditions: after 1 day of treatment, 95% confidence limits in brackets
Description: (§5) Over the course of 40 days, an O. basilicum cell suspension was cultivated in this investigation, and then the extract was obtained. […] Long segments of sugarcane stem were employed in the insect breeding lab at King Faisal University’s Research and Training Center to raise adult R. ferrugineus larvae. For this experiment, we used a topical application technique with larvae stored at 4 °C for five minutes to test the extract’s activity. Using a hand-operated micro-applicator (Burkard Manufacturing Co., Ltd., Hertfordshire, UK, collected using a […] micro-syringe), extracts at escalating ratios (10 µL) were injected into the dorsal surface of the larvae (Ito Corp.; MS-N50, Shizuoka, Japan). Five larvae per box in a series of three replicates were fed on sugarcane stem pieces measuring 10 cm in length. The LD50 was calculated by measuring the percentage of dead larvae at 24, 48, 72, and 96 h following a topical application. The antifeedant impact was determined in adults by giving them 10 cm sugarcane stem segments cut in half longitudinally. Long strips of sugarcane stem (32 cm^2) were immersed in the previous serial extract and compound concentration (10 mL) for ten seconds before they were dried in ambient air using a plastic box. Each box included a new pair of larvae (a male and a female). Ten sets of each treatment were performed. Data on how well the subjects ate were evaluated at 24, 48, 72, and 96 h.
(§6) The tissue culture parameters were calculated quantitatively from three independent sets of samples, and the mean SD was used to describe the findings. Toxicity parameters were determined quantitatively using a 10-replicate sample, and means and standard deviations were used to present the data. The median dosage obtained from a dose–response regression was used to calculate the LC50 value. By analyzing the comparative growth rate vs. the crude extract logarithm using least squares regression, the range of LC50 was calculated with 95% confidence. A simple variance study was performed on the increased weight and enzymatic activity data (ANOVA). The distinction between the means was accomplished using the Student–Newman–Keuls (SNK) test. Additionally, SPSS version 25 was used to find p < 0.05 significant deviations from the mean.

[4] = test system: R. ferrugineus adults; assay: Antifeedant/insecticidal test on adults with treated sugarcane stem (probit LC50); type: in vivo, Rhynchophorus ferrugineus; conditions: Rhynchophorus ferrugineus, 24 h, after 1 day of treatment, 95% confidence limits in brackets, read-out: LC50
Description: as §5, §6

[5] = test system: AChE; assay: In vitro AChE inhibition, larval homogenate (Ellman); type: biochemical, Rhynchophorus ferrugineus; conditions: fourth-instar larvae preparation
Description: as §1, §3

[6] = test system: ACPs; assay: In vitro ACP inhibition, larval homogenate; type: biochemical, Rhynchophorus ferrugineus; conditions: fourth-instar larvae preparation
Description: as §1, §2

[7] = test system: ACPs; assay: In vivo ACP inhibition in treated fourth-instar larvae; parameters: species or system Rhynchophorus ferrugineus; conditions: fourth-instar larvae treated 24 h
Description: as §2, §4

[8] = test system: ALPs; assay: In vivo ALP inhibition in treated fourth-instar larvae; parameters: species or system Rhynchophorus ferrugineus; conditions: fourth-instar larvae treated 24 h
Description: as §2, §4

[9] = listed as quercetin-3-O-rutinoside

## O=C(/C=C/c1ccc(O)c(O)c1)O[C@@H](C(=O)O)[C@@H](O)C(=O)O [Caftaric acid]
[1]
  IC50 ALP in vitro: 158 µg/mL (≈ 505 µM)
[1]; listed as caftaric acid
  IC50 ALPs in vitro: < 200 µg/mL
[2]
  IC50 AChE in vivo: 429 ± 1.49 µg/mL
[2]; listed as caftaric acid
  IC50 AChE in vivo: 429.2 µg/mL
[3]
  LD50: 18.79 (17.82–19.93) µg/Larvae
[3]; listed as caftaric acid
  LD50: 18.79 µg/Larvae
[4]
  LC50: 1490 µg/mL (≈ 4780 µM)
[5]
  IC50 AChE in vitro: 156 ± 1.49 µg/mL
[5]; listed as caftaric acid
  IC50 AChE in vitro: 156.4 µg/mL

## O=C(/C=C/c1ccc(O)c(O)c1)O/C=C\c1ccc(O)c(O)c1 [Nepetoidin B]
[1]
  IC50 ALP in vitro: 166 µg/mL (≈ 529 µM)
[1]; listed as nepetoidin B
  IC50 ALPs in vitro: < 200 µg/mL
[6]; listed as nepetoidin B
  IC50 ACPs in vitro: 154.2 µg/mL (≈ 491 µM)
[2]
  IC50 AChE in vivo: 282 ± 1.38 µg/mL
[2]; listed as nepetoidin B
  IC50 AChE in vivo: 281.7 µg/mL
[7]; listed as nepetoidin B
  IC50 ACPs in vivo: < 330 µg/mL and 294.3 µg/mL
[8]; listed as nepetoidin B
  IC50 ALPs in vivo: 307.9 µg/mL
[3]
  LD50: 11.5 (10.9–12.1) µg/Larvae
[3]; listed as nepetoidin B
  LD50: 11.5 µg/Larvae
[4]
  LC50: 1270 µg/mL (≈ 4050 µM)
[5]
  IC50 AChE in vitro: 147 ± 1.38 µg/mL
[5]; listed as nepetoidin B
  IC50 AChE in vitro: 147.2 µg/mL

## Chicoric acid
[1]; listed as chicoric acid
  IC50 ALPs in vitro: < 200 µg/mL
[6]; listed as chicoric acid
  IC50 ACPs in vitro: 101.7 µg/mL
[2]
  IC50 AChE in vivo: 213 ± 1.07 µg/mL
[2]; listed as chicoric acid
  IC50 AChE in vivo: 211.6 µg/mL
[7]; listed as chicoric acid
  IC50 ACPs in vivo: < 330 µg/mL and 204.8 µg/mL
[8]; listed as chicoric acid
  IC50 ALPs in vivo: 237.2 µg/mL
[3]
  LD50: 9.45 (9.07–10.45) µg/Larvae
[3]; listed as chicoric acid
  LD50: 9.45 µg/Larvae
[5]
  IC50 AChE in vitro: 108 ± 1.07 µg/mL
[5]; listed as chicoric acid
  IC50 AChE in vitro: 107.5 µg/mL

## C[C@@H]1O[C@@H](OC[C@H]2O[C@@H](Oc3c(-c4ccc(O)c(O)c4)oc4cc(O)cc(O)c4c3=O)[C@H](O)[C@@H](O)[C@@H]2O)[C@H](O)[C@H](O)[C@H]1O [Quercetin-3-O-rutinoside]
[1]
  IC50 ALP in vitro: 102 µg/mL (≈ 168 µM)
[1]; [9]
  IC50 ALPs in vitro: < 200 µg/mL
[6]; [9]
  IC50 ACPs in vitro: 104.8 µg/mL (≈ 172 µM)
[2]
  IC50 AChE in vivo: 348 ± 0.87 µg/mL
[2]; [9]
  IC50 AChE in vivo: 347.6 µg/mL
[7]; [9]
  IC50 ACPs in vivo: 298.4 µg/mL
[3]
  LD50: 16.2 (15.3–17.2) µg/Larvae
[3]; [9]
  LD50: 16.2 µg/Larvae
[4]
  LC50: 1170 µg/mL (≈ 1910 µM)
[5]
  IC50 AChE in vitro: 98 ± 0.87 µg/mL
[5]; [9]
  IC50 AChE in vitro: 98.4 µg/mL
